Values of other authors in patent US5858398A, “Microparticular pharmaceutical compositions” (Isomed Inc., priority 1996, dated 1999).

System: intestinal membranes

For “sn-1-acyl-3-glycerophosphorylcholine [lyso-PC]”, the “concentrations inducing histopathological damage to intestinal membranes” value is given as 0.01-1 mM.
